Measurements: patent US10980824B2, “Pharmaceutical composition comprising quercetin-3-O-β-D-xylopyranoside for preventing or treating liver disease” (Hongcheon Institute of Medical Herb, priority 2016, dated 2021)

Legend:
Assay type in all cases: in vivo, C57BL/6N mice
[1] = tested on: TNF-α; test: Inhibitory effect on TNF-α in alcoholic steatosis mice; conditions: liver tissue, vs alcohol-fed group (FIG. 12A)
Experimental: The level of TNF-α in liver tissue was measured by using RT-PCR and ELISA as described above in Example 2-7 to analyze whether the amount of TNF-α induced by alcohol was reduced due to treatment of quercetin-3-O-β-D-xylopyranoside.
A commercially available ELISA kit purchased from R&D Systems (Minneapolis, Minn.) was used.

[2] = tested on: p-AMPKα; test: Western blot of p-AMPKα in liver tissue
Experimental: (§1) Expression of p-AMPKα, p-ACC, and CPT-1, which regulate intrahepatic lipid metabolism, was analyzed by western blot analysis to understand the mechanism involved in pathogenesis of alcoholic steatosis in detail. The specific western blot analysis method is as follows.
(§2) First, a mouse liver homogenate was prepared by using a RIPA buffer solution including a protease and tyrosine phosphatase inhibitor cocktail (Sigma). Protein concentrations of lysates were determined using a Bicinchoninic (BCA) Protein Assay Kit (Thermo Scientific, IL, USA) according to the manufacturer's instructions. Isolated soluble proteins ([…]) were separated on an 8% to 15% SDS-polyacrylamide gel. The separated proteins were electroblotted on a nitrocellulose transfer membrane (Bio-Rad, Hercules, Calif., USA). The membrane was incubated with 5% non-fat dry milk for 1 hour and then probed for antigens using antibodies diluted to 1:1,000, and was incubated with anti-pAMPKα, anti-AMPKα, anti-PACC, anti-ACC, anti-CYP2E1, anti-CPT1a (Cell Signaling Technology), and anti-β-actin (Santa Cruz Biotechnology) at 4° C. for 18 hours. […] Band density was measured using ImageJ (National Institutes of Health, Bethesda, Md., USA) and expressed as a multiple relative to β-actin.

[3] = tested on: cytochrome P-450 2E1 (CYP2E1); test: Expression of cytochrome P-450 2E1 by tissue staining; conditions: liver tissue staining; 1 mg/kg oral 10 days; EtOH+B vs EtOH-fed (FIG. 8)
Experimental: (§3) 8-week-old C57BL/6N mice were purchased from DAEHAN BIOLINK to be used for efficacy evaluation and quarantined and acclimated in a vivarium of HONGCHEON INSTITUTE OF MEDICAL HERB for 7 days (relative temperature: 23±2° C., relative humidity: 50±5%, and a 12 h light-dark cycle) prior to the start of experimentation. Among them, 18 male mice with no abnormal symptoms were selected and used.
(§4) During a liquid diet adaptation period, a control group was restrictedly fed with a Lieber-DeCarli'82 control liquid diet (F1259SP, Bio-serv), and an alcohol-fed group was restrictedly fed with a Lieber-DeCarli'82 ethanol liquid diet (F1258SP, Bio-serv) using a Liquid diet feeding tube (9019, Bio-serv), and the diets were replaced with new ones at a preset time between 3 P.M. and 5 P.M.
(§5) After 5 days of the liquid diet adaptation period, the mice were orally administered with 1 mg/kg of quercetin-3-O-β-D-xylopyranoside (test substance) for 10 days and fed with a 5% alcohol liquid diet. At 11th day, between 7 A.M. and 9 A.M., a group not fed with alcohol (hereinafter referred to as Pair-fed group) was orally administered with a 45% maltose dextrin solution, and a group fed with a 5% liquid diet (hereinafter referred to as EtOH-fed) and a group administered with a test substance (hereinafter referred to as EtOH+B group) were orally fed with 31.5% ethanol. […]

[4] = tested on: MCP-1; test: mRNA level of MCP-1 by RT-PCR; conditions: alcohol+compound group vs alcohol-fed group (FIG. 14)
From the text: (§6) Monocyte chemoattractant protein 1 (MCP-1), called chemokine ligand 2 (CCL2), is one of the key chemokines that regulate pathogeneses of several diseases caused by monocyte infiltration. Meanwhile, interleukin 1 beta (IL1β), also known as a leukocytic endogenous mediator and a lymphocyte activating factor, is a member of the interleukin 1 family of cytokines. The cytokines are produced by activated macrophages at a damaged region of tissue.
(§7) Specifically, mRNA levels of MCP-1 and IL-1β were analyzed by using RT-PCR as described above in Example 2-8.

[5] = tested on: ApoB gene; test: Real-time PCR of lipid metabolism gene expression in liver: ApoB; conditions: liver mRNA, relative to Pair-fed group; EtOH+B group, 1 mg/kg oral 10 days (FIG. 11)
Experimental: as §3
as §4, with “5 P.M. […]” for “5 P.M.”
(§8) Real-time quantitative PCR was performed using a 7500 Real-time Thermal Cycler (Applied Biosystems, USA) with SYBR Green (Applied Biosystems, USA) to measure gene expression. […]
(§9) PCR amplification steps as described below were repeated for up to 40 cycles. […] Values were recorded after extension at every cycle.
(§10) After completion of all cycles, melting curve analysis was carried out to verify specificity of the primers. The results were analyzed using the One step system software v2.1 provided by Applied Biosystems.

[6] = tested on: adiponectin; test: Effect on recovering adiponectin in alcoholic steatosis mice; conditions: alcohol+compound group vs alcohol-fed group (FIG. 13)
Experimental: Adiponectin, which is a major anti-inflammatory agent, is an adipose tissue-derived adipokine. […] Thus, a plasma level of adiponectin was analyzed by ELISA to evaluate the effect of quercetin-3-O-β-D-xylopyranoside on regulation of the adiponectin content.
Specifically, the plasma level of adiponectin was analyzed by using RT-PCR and ELISA in the same manner as the measurement of the TNF-α level in liver tissue as described above in Example 2-8.

[7] = tested on: alcoholic steatosis-induced mice; test: Fat accumulation in the liver (visual observation, H&E staining, Oil Red O staining); conditions: 1 mg/kg oral 10 days
Experimental: as §3, §4, §5

[8] = tested on: IL-1β; test: mRNA level of IL-1β by RT-PCR; conditions: alcohol+compound group vs alcohol-fed group (FIG. 14)
From the text: as §6, §7

[9] = tested on: Cd36 gene; test: Real-time PCR of lipid metabolism gene expression in liver: Cd36; conditions: liver mRNA, relative to Pair-fed group; EtOH+B group, 1 mg/kg oral 10 days (FIG. 11)
Experimental: as §3
as §4, with “5 P.M. […]” for “5 P.M.”
as §8, §9, §10

[10] = tested on: Fabp gene; test: Real-time PCR of lipid metabolism gene expression in liver: Fabp; conditions: liver mRNA, relative to Pair-fed group; EtOH+B group, 1 mg/kg oral 10 days (FIG. 11)
Experimental: as §3
as §4, with “5 P.M. […]” for “5 P.M.”
as §8, §9, §10

[11] = tested on: Fas gene; test: Real-time PCR of lipid metabolism gene expression in liver: Fas; conditions: liver mRNA, relative to Pair-fed group; EtOH+B group, 1 mg/kg oral 10 days (FIG. 11)
Experimental: as §3
as §4, with “5 P.M. […]” for “5 P.M.”
as §8, §9, §10

[12] = Body weight, feed intake and excised organ weight of alcoholic steatosis-induced mice; conditions: 1 mg/kg oral 10 days; conclusion from body and organ weights
Experimental: as §3, §4
After 5 days of the liquid diet adaptation period, the mice were orally administered with 1 mg/kg of quercetin-3-O-β-D-xylopyranoside (test substance) for 10 days and fed with a 5% alcohol liquid diet. At 11th day, between 7 A.M. and 9 A.M., a group not fed with alcohol (hereinafter referred to as Pair-fed group) was orally administered with a 45% maltose dextrin solution, and a group fed with a 5% liquid diet (hereinafter referred to as EtOH-fed) and a group administered with a test substance (hereinafter referred to as EtOH+B group) were orally fed with 31.5% ethanol.
2-1. […]

[13] = tested on: alcoholic steatosis-induced mice; test: Concentrations of triglycerides in the blood and liver; conditions: 1 mg/kg oral 10 days; EtOH+B vs EtOH-fed (FIG. 7)
Experimental: as §3, §4, §5

[14] = tested on: alcoholic steatosis-induced mice; test: Progression of hepatic fibrosis in reticular fibers by Gomori Reticulum staining; conditions: 1 mg/kg oral 10 days; EtOH+B vs EtOH-fed (FIG. 9)
Experimental: as §3, §4, §5

[15] = tested on: CPT-1; test: Western blot of CPT-1 in liver tissue; conditions: compound group vs alcohol-fed group
Experimental: as §1, §2

[16] = tested on: alcoholic steatosis-induced mice; test: Biochemical analysis of ALT and AST levels; conditions: 1 mg/kg oral 10 days; EtOH+B vs EtOH-fed (FIG. 10)
Experimental: as §3, §4, §5

[17] = tested on: p-ACC; test: Western blot of p-ACC in liver tissue; conditions: compound group vs alcohol-fed group
Experimental: as §1, §2

[18] = tested on: alcoholic steatosis-induced mice; test: Apoptosis in liver tissue by TUNEL assay; conditions: alcohol+compound group vs group fed with only alcohol (FIG. 15)
Experimental: DNA fragmentation characteristics of apoptosis were examined using a terminal deoxynucleotidyl transferase (TdT)-FragEL kit (Oncogene Research Products, San Diego, Calif.).
First, a tissue sample fixed in 4% paraformaldehyde was embedded in paraffin and sliced into 5 μm sections. Replicated sections were rehydrated and permeabilized with proteinase K (20 μg/mL) at 25° C. for 20 minutes. Subsequently, the sections were covered with 3% H2O2 for 5 minutes to inactivate endogenous peroxidase. After the sample was incubated in a TdT buffer solution (200 mM sodium-cacodylate, 30 mM Tris, 0.3 mg/mL BSA, 0.75 mM CoCl2, pH 6.6) for 5 minutes, slides were covered with TdT and biotinylated dUTP and incubated in a humidified chamber at 37° C. for 1.5 hours. Negative controls were incubated with biotinylated dUTP in a TdT buffer solution without enzyme. Reactions were terminated by adding a stop buffer (0.5 M EDTA, pH 8.0) thereto at room temperature for 5 minutes. After blocking with 4% BSA, the slides were incubated with a streptavidin-horseradish peroxidase conjugate for 30 minutes. Subsequently, the sections were incubated in DAB at room temperature for 12 minutes and counterstained with methyl green. Apoptotic cells were identified by stained properties and morphological criteria (cell contraction, chromatin condensation and/or margination, and apoptotic bodies).

Which “expression level of RNA of TNF-α” value ([1]; 1 mg/kg) does the source give for `O=c1c(O[C@@H]2OC[C@@H](O)[C@H](O)[C@H]2O)c(-c2ccc(O)c(O)c2)oc2cc(O)cc(O)c12` [quercetin-3-O-β-D-xylopyranoside] here?
The value was “significantly inhibited”.

And the “expression level of RNA of TNF-α” value ([1]; 10 mg/kg)?
Its value is “significantly inhibited”.

What about the “expression level of pAMPK” value ([2]; 10 mg/kg (FIGS. 16A and 16B)) of the same compound?
Its value is “significantly increased”.

What about the “expression levels of AMPK protein” value ([2]; among the groups (FIGS. 16A and 16B)) of the same compound?
The value was “no difference”.

What about the CYP2E1 expression level [3] of the same compound?
The CYP2E1 expression level was “far lower”.

What about the “mRNA level of MCP-1” value [4] of the same compound?
Its value is “significantly reduced”.

What about the “expression level of the ApoB gene” value [5] of the same compound?
The value was 0.8 times.

And the plasma adiponectin level [6]?
Its plasma adiponectin level is “significantly recovered”.

What about the “amount of lipid accumulated in the liver, dissection and visual observation” value ([7]; EtOH+B vs EtOH-fed (FIG. 5)) of the same compound?
Its value is “significantly reduced”.

What about the “amount of lipid droplets in the liver tissue, H&E and Oil Red O staining” value ([7]; EtOH+B vs EtOH-fed (FIG. 6)) of the same compound?
Its value is “significantly reduced”.

What about the “mRNA level of IL-1β” value [8] of the same compound?
Its value is “significantly reduced”.

And the “expression level of the Cd36 gene” value [9]?
The value was 0.98 times.

And the “expression level of the Fabp gene” value [10]?
The value was 0.7 times.

And the “expression level of the Fas gene” value [11]?
The value was 1.1 times.

What about the “toxicity to mice and internal organs” value [12] of the same compound?
The value was “no toxicity”.

And the “concentration of triglycerides in the blood” value [13]?
Its value is “significantly reduced”.

What about the “concentration of triglycerides in the liver” value [13] of the same compound?
The value was “significantly reduced”.

What about the “progression of hepatic fibrosis in reticular fibers” value [14] of the same compound?
The value was “suppressed”.

And the CPT-1 level [15]?
The CPT-1 level was “significantly restored”.

And the ALT level [16]?
Its ALT level is “decreased”.

And the AST level [16]?
The AST level was “decreased”.

What about the p-ACC level [17] of the same compound?
Its p-ACC level is “significantly restored”.

What about the “degree of apoptosis in liver tissue” value [18] of the same compound?
Its value is “significantly reduced”.
